Holding throughout (assay): SelectScreen Biochemical Kinase Assay
The target in experiment [1] is DNA-dependent protein kinase catalytic subunit (Mus musculus, UniProt P97313). As for the experimental part:
(§1) Biochemical in vitro lipid kinase assays were performed by the SelectScreen biochemical kinase assay service (Invitrogen Ltd.). A stock solution of GS-9820 was prepared in DMSO at a concentration of 10 mM. Ten-point kinase inhibitory activities were measured over a concentration range (5 to 10^4 nM) with ATP at a concentration consistent with the Km of each of the enzymes.

For experiment [2], the target named is Phosphatidylinositol 4,5-bisphosphate 3-kinase catalytic subunit alpha isoform (Mus musculus, UniProt P42337). As for the experimental part: as §1
Phosphatidylinositol 4,5-bisphosphate 3-kinase catalytic subunit alpha isoform, sequence (P42337 whole entry, canonical isoform): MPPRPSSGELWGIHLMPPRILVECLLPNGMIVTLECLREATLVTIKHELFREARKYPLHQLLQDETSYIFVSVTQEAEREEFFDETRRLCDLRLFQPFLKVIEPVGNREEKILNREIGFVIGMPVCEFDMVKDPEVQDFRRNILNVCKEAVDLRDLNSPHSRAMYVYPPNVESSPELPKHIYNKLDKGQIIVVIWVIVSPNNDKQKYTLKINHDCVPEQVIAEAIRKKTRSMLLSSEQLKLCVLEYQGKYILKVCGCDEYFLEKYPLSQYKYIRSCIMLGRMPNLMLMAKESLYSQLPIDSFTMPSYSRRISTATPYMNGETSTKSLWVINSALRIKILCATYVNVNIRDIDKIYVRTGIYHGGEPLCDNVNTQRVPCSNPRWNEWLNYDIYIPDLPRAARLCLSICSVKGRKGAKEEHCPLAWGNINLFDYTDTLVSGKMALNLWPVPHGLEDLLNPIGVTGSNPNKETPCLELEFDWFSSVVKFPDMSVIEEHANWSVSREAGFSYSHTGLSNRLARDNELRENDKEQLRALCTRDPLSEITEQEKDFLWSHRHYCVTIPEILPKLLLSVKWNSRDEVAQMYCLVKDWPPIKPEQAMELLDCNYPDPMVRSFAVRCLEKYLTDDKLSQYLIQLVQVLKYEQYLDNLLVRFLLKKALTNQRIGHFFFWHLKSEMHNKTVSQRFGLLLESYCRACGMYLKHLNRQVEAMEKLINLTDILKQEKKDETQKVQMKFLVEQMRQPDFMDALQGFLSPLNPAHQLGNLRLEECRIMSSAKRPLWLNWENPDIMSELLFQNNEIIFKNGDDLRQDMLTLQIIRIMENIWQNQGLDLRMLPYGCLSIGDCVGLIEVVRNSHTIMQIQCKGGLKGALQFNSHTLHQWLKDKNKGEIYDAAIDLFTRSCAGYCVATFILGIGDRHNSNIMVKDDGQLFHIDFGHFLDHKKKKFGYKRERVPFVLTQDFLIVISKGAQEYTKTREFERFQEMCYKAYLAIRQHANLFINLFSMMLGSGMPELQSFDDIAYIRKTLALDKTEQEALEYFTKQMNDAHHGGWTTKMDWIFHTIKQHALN
Experiment [3] has as its target Phosphatidylinositol 4,5-bisphosphate 3-kinase catalytic subunit beta isoform (Mus musculus, UniProt Q8BTI9). As for the experimental part: as §1
The target in experiment [4] is T1, Phosphatidylinositol 4,5-bisphosphate 3-kinase catalytic subunit delta isoform (Mus musculus, UniProt O35904).
T1 sequence (O35904 whole entry): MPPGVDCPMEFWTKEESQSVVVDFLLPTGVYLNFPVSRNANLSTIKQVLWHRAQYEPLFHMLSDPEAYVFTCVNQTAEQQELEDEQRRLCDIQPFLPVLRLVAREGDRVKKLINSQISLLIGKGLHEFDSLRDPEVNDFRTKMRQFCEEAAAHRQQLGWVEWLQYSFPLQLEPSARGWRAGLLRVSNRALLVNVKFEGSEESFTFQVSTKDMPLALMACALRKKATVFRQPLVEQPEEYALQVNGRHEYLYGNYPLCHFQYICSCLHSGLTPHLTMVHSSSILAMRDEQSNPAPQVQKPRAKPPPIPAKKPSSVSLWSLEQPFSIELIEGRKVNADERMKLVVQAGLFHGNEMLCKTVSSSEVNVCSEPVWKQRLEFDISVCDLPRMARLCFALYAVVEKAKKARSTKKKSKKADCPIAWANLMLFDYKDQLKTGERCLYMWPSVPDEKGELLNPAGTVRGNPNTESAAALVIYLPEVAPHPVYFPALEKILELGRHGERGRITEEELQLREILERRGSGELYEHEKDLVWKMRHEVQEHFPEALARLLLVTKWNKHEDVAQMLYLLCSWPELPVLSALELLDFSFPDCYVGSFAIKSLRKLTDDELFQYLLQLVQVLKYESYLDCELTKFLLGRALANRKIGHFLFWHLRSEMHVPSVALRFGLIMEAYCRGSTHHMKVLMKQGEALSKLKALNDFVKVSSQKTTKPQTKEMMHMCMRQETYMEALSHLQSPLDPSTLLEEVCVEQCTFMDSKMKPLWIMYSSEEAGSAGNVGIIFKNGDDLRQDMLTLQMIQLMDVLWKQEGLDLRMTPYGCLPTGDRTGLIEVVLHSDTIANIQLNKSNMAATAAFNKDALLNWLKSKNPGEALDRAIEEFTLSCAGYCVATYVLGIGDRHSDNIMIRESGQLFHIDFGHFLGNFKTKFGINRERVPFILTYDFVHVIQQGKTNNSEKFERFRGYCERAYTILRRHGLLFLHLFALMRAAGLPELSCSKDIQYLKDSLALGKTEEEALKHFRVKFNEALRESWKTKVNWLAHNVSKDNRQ
The method, then:
as §1

Experiment [5] addresses Phosphatidylinositol 4,5-bisphosphate 3-kinase catalytic subunit gamma isoform (Mus musculus, UniProt Q9JHG7). As for the experimental part: as §1
For experiment [6], the target named is Phosphatidylinositol 4-phosphate 5-kinase type-1 alpha (Mus musculus, UniProt P70182). As for the experimental part:
as §1

Experiment [7] has as its target Phosphatidylinositol 4-phosphate 5-kinase type-1 beta (Mus musculus, UniProt P70181). As for the experimental part:
as §1

Phosphatidylinositol 4-phosphate 5-kinase type-1 alpha, sequence (P70182 whole entry): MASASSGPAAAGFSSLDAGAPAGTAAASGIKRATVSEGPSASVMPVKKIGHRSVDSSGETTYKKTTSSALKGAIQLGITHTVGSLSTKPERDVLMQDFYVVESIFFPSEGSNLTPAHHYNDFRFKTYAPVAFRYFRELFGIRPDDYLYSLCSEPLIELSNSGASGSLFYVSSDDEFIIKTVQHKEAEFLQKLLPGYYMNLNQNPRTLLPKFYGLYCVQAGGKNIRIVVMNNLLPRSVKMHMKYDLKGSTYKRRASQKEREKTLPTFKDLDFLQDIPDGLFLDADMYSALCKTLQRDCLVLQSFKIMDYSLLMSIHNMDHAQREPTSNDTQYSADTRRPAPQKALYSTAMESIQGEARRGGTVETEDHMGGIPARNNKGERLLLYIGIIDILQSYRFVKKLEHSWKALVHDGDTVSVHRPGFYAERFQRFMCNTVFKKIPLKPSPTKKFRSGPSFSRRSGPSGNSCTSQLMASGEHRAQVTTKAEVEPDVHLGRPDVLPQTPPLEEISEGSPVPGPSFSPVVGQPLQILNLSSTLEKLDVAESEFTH
Phosphatidylinositol 4,5-bisphosphate 3-kinase catalytic subunit gamma isoform, sequence (Q9JHG7 whole entry, canonical isoform): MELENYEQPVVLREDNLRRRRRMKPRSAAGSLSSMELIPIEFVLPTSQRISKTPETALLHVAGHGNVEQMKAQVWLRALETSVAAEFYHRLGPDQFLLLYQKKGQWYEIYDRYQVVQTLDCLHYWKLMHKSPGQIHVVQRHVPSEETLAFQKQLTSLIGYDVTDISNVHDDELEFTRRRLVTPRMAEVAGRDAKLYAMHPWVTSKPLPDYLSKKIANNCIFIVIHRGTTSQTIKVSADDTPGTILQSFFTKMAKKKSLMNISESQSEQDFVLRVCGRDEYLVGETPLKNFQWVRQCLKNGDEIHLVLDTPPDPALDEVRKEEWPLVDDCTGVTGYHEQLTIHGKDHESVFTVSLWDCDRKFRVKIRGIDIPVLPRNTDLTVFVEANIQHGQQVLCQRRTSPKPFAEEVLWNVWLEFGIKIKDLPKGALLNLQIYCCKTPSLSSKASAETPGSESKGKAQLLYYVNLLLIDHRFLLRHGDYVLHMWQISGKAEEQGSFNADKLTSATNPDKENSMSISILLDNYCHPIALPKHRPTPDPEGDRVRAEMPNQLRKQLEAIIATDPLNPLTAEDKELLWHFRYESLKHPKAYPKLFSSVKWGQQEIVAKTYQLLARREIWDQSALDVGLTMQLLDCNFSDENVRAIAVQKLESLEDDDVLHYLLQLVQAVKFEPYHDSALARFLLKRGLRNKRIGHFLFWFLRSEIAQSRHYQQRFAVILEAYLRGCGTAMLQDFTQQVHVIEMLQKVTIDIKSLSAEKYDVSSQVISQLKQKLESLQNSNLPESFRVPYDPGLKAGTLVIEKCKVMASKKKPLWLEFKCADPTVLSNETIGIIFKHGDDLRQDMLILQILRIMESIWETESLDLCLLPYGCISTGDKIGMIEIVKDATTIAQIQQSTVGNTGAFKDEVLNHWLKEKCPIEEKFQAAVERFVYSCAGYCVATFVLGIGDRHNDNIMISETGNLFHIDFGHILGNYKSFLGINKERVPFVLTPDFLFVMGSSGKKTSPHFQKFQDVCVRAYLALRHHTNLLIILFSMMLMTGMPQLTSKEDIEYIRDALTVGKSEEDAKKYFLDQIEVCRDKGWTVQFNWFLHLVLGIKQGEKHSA
Phosphatidylinositol 4-phosphate 5-kinase type-1 beta, sequence (P70181 whole entry): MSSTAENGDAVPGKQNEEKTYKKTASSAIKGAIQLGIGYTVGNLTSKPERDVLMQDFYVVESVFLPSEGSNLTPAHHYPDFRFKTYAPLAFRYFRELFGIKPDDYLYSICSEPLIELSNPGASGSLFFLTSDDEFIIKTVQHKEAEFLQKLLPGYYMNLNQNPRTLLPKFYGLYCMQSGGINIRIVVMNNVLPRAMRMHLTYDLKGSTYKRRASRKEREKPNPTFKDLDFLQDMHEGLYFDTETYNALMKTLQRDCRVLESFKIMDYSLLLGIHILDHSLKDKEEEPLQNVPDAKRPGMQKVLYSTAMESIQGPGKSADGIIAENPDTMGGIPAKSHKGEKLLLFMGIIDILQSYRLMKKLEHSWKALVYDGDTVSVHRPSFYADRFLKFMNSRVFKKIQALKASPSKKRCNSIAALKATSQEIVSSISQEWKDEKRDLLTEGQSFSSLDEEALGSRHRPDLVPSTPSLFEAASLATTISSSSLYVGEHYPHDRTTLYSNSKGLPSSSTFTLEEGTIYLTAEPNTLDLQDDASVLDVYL
Phosphatidylinositol 4,5-bisphosphate 3-kinase catalytic subunit beta isoform, sequence (Q8BTI9 whole entry, canonical isoform): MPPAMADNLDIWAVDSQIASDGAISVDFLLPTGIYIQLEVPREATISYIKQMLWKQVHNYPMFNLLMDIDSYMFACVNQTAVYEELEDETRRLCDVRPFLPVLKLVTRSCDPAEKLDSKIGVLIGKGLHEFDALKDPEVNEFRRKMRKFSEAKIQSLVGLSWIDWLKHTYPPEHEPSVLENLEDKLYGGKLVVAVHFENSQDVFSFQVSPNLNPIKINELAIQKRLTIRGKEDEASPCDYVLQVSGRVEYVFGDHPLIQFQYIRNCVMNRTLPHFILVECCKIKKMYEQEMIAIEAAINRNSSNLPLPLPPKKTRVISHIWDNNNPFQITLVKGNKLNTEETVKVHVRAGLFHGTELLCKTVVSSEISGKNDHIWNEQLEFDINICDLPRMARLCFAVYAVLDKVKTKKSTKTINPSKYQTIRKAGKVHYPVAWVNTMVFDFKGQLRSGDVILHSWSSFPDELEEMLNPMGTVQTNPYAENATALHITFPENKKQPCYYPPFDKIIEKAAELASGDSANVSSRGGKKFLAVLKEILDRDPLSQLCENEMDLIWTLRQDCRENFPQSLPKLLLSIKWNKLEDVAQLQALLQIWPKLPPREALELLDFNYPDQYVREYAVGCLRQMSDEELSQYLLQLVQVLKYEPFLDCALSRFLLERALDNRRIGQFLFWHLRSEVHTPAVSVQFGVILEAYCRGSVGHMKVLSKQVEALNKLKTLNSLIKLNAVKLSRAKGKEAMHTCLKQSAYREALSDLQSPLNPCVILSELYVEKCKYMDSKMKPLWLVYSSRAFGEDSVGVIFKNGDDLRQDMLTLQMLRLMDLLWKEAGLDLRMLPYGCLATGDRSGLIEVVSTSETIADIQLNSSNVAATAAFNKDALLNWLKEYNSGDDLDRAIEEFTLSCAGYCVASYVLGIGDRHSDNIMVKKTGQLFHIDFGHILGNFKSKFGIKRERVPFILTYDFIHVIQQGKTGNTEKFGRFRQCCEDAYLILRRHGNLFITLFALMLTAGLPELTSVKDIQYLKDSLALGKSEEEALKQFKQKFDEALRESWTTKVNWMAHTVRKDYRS

Regarding `C[C@H](Nc1ncnc2[nH]cnc12)c1nc2ccc(F)cc2c(=O)n1-c1ccccc1` [GS-9820], the half-inhibitory concentration (IC50) is 18.7 µM in experiment [1]; 5.44 µM in experiment [2]; 3.38 µM in experiment [3]; 0.0127 µM in experiment [4]; 1.39 µM in experiment [5]; more than 10 µM in experiment [6]. Moreover, in experiment [7], the IC50 was more than 10 µM.

The values are drawn from BindingDB's records for doi:10.1074/jbc.M113.507525 (Western University, 2013).
